# Values joined by “and” are separate entries in the source; they are usually repeats but may differ in a detail not shown here. Identical values can stand only once.
# Experiments:
# [1] = target: T1, AlgKXPp complex (Pseudomonas putida, UniProt Q88NC7+Q88ND0); experiment: ESI-MS alginate binding assay, AlgKXPp complex (binding model fit); conditions: for Ka (M^−1) (AlgKXPp), apparent association constant: ESI-MS, 200 mM aqueous ammonium acetate, pH 7, 25 °C, errors one standard deviation; for fraction of AlgKXPp bound to ligand: ammonium acetate (200 mM, pH 7.0), mean, n = 3
# T1 construct: Induced cells containing either pET26b P. putida AlgK^33–484 or pET24b P. putida AlgX^∆Nterm; His6 (C); made in house; host or cells: E. coli BL21 (DE3) CodonPlus (AlgK) and E. coli Lemo21 (DE3) (AlgX)
# T1 sequence (Q88ND0 25-479): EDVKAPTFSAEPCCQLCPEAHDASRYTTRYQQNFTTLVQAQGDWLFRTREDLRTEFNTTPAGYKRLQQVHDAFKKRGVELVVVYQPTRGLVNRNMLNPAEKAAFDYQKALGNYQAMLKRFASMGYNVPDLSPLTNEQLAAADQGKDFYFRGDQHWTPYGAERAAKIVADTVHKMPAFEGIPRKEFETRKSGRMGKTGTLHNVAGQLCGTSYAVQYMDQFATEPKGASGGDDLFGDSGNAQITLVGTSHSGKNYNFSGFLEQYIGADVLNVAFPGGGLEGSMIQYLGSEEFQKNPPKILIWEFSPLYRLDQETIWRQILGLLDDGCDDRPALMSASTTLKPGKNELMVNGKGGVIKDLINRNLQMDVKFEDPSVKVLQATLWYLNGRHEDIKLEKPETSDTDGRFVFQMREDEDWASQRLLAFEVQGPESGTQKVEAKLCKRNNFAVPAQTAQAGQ
# T1 sequence (Q88NC7 33-484): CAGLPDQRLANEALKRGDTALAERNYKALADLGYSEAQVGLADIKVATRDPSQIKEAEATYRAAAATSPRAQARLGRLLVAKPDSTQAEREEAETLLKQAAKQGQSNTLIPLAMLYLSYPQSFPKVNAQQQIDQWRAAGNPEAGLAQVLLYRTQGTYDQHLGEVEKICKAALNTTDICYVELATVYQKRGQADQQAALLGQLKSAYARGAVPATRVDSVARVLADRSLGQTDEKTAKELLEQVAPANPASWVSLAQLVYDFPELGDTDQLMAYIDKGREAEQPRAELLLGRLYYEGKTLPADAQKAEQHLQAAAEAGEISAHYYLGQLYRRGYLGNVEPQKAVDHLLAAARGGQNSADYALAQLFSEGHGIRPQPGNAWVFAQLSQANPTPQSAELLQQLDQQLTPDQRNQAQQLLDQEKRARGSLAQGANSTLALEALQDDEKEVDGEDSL
# Procedure: (§1) AlgXPp and AlgKPp stock solutions were buffer exchanged into 200 mM aqueous ammonium acetate (pH 7) using a 10 kDa cut-off Amicon 0.5 mL microconcentrators (EMD, Millipore, Billerica, MA). Stock solutions of oligosaccharides were prepared by dissolving a known amount of solid compound in Milli-Q water and stored at −20 °C until used. Nanoelectrospray (nanoESI) mass spectrometry measurements were performed on a Q Exactive Orbitrap (Orbitrap) mass spectrometer (Thermo Fisher Scientific, Bremen, Germany) and on a Q Exactive Ultra-High Mass Range Orbitrap mass spectrometer (Thermo Fisher Scientific, Bremen, Germany), both equipped with a nanoflow ESI source. NanoESI was performed by applying a voltage of ~0.8 kV to a platinum wire inserted into the nanoESI tip, which was produced from a borosilicate glass capillary (1.0 mm o.d., 0.78 mm i.d.) pulled to ~2 μm o.d. using a P − 1000 micropipette puller (Sutter Instruments, Novato, CA). The inlet capillary of the MS was heated to 120 °C, the S-lens RF level was set at 100, automatic gain control target was set at 1 × 10^6 with a maximum injection time of 200 ms. All MS data were acquired and processed using Thermo Xcalibur 4.1 software.
# (§2) 3b AlgXPpL⇌AlgXPp+L,Ka,xL=[AlgXPpL]/AlgXPp[L] 3c AlgKXPp⇌AlgKPp+AlgXPp,Ka,kx=[AlgKXPpL]/AlgKPp[AlgXPp] 3d AlgKXPpL⇌AlgKXPp+L,Ka,kxL=[AlgKXPL]/AlgKXPpLL
# (§3) The corresponding mass balance equations are shown below:4a [L]0=[L]+[AlgKPpL]+[AlgXPpL]+[AlgKXPpL] 4b [AlgKPp]0=[AlgKPp]+[AlgKPpL]+[AlgKXPp]+[AlgKXPpL] 4c [AlgXPp]0=[AlgXPp]+[AlgXPpL]+[AlgKXPp]+[AlgKXPpL] where […], […], and [L]0 are initial concentrations of AlgKPp, AlgXPp, and oligosaccharide ligand L; Ka,kL, Ka,xL, and Ka,kx are association constant values determined as described above, and Ka,kxL is unknown parameter found by the fitting of the model to experimental data.
# [2] = target: AlgKXPp (Pseudomonas putida, UniProt Q88NC7+Q88ND0); experiment: NanoESI-MS ligand titration of the AlgK-AlgX mixture, Ka,kxL fitted from the ligand-bound fraction of the complex with a coupled-equilibria model, 200 mM aqueous ammonium acetate pH 7, 25 °C by the table title (21 °C in the methods).; format: binding; conditions: n = 3; read-out: Ka (M^-1) (AlgKXPp)
# AlgKXPp, sequence (Q88ND0 whole entry): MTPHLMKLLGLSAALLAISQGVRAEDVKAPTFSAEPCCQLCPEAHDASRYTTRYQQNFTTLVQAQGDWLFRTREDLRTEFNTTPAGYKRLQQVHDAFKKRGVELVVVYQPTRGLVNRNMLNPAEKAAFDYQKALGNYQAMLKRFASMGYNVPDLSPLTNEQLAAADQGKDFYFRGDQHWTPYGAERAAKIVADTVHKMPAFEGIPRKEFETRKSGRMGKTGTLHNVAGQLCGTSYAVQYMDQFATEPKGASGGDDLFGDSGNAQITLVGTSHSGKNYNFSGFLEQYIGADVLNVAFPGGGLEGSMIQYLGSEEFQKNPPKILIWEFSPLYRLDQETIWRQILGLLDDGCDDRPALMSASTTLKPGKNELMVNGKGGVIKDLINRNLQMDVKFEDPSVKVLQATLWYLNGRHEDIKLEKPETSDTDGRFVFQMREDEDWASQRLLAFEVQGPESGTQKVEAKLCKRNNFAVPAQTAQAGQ
# AlgKXPp, sequence (Q88NC7 33-484): as the sequence (Q88NC7 33-484) above
# Procedure: as §1
# The Ka,kx for the interaction of AlgKPp and AlgXPp with the formation of AlgKXPp complex was obtained using the Slow Mixing Mode (SLOMO) ESI-MS assay. Briefly, ~2 µL of a solution of AlgXPp (5 µM) and AlgKPp (3–10 µM) was introduced into the nanoESI tip, followed by injection of 10 µL of solution of AlgXPp (5 µM) and AlgKPp (45 µM). The binding measurements were carried out at 21 °C; time-resolved mass spectra were averaged over 1 min intervals and the sum of the charge state-normalized abundances of the […] and AlgKXPp complex ions were calculated automatically using the SWARM software (https://github.com/pkitov/CUPRA-SWARM)[72]. The corrected (for response factors) abundances of AlgXPp and AlgKXPp species were used to calculate R/(R+1) values for AlgKPp (designated as L) and AlgXPp (designated as P) interaction and association constant Ka,kx was found using Eq. (1) (Ka,kx in this case designated as Ka in Eq. (1)).
# as §2, §3
# [3] = target: T2, AlgKPp (Pseudomonas putida, UniProt Q88NC7); experiment: Direct nanoESI-MS binding assay of the single proteins with reference protein correction for nonspecific binding, 200 mM aqueous ammonium acetate pH 7, 25 °C by the table title (21 °C in the methods).; parameters: gene algK; conditions: read-out: Ka (M^-1) (AlgKPp); Ka (M^-1) (AlgXPp)
# T2 sequence (Q88NC7 33-484): as above
# Procedure: as §1
# (§4) Association constants (Ka,kL and Ka,xL) for interactions of AlgKPp and AlgXPp with oligosaccharide ligands were obtained using the direct ESI-MS assay[68],[69]. The binding measurements were carried out at 21 °C, and the equilibrium mixtures were prepared by mixing aliquots of the stock solutions of proteins and ligands in aqueous ammonium acetate (200 mM). ESI-MS measurements were performed after a 1 h incubation time period. All mass spectra were corrected, when needed, for the occurrence of nonspecific carbohydrate-protein binding during the ESI process using the reference protein method. Ka,kL and Ka,xL values were determined from the abundance ratio (R) of the ligand-bound (PL) to free protein (P) ions (P can be AlgKPp or AlgXPp), after correction for nonspecific ligand binding, and the initial concentrations of protein ([P]0) and ligand ([L]0), Eq. (1):1 R/R+1=KaP0+KaL0+1−(1−KaL0+KaP0)^2+4KaL0/2KaP0 where R is taken to be equal to the corresponding equilibrium concentration ratio ([PL]/[P]) in solution, Eq. (2):2 R=∑Ab(PL)/∑Ab(P)=[PL]/[P] and Ka is Ka,kL or Ka,xL.
# [4] = target: T2, AlgKPp; experiment: Direct ESI-MS alginate binding assay, AlgKPp; parameters: Induced cells containing either pET26b P. putida AlgK^33–484 or pET24b P. putida AlgX^∆Nterm; His6 (C); made in house; host or cells: E. coli BL21 (DE3) CodonPlus; conditions: 200 mM aqueous ammonium acetate, pH 7, 25 °C, errors one standard deviation, nb = no binding detected
# Procedure: (§5) AlgXPp and AlgKPp stock solutions were buffer exchanged into 200 mM aqueous ammonium acetate (pH 7) using a 10 kDa cut-off Amicon 0.5 mL microconcentrators (EMD, Millipore, Billerica, MA). Stock solutions of oligosaccharides were prepared by dissolving a known amount of solid compound in Milli-Q water and stored at −20 °C until used. Nanoelectrospray (nanoESI) mass spectrometry measurements were performed on a Q Exactive Orbitrap (Orbitrap) mass spectrometer (Thermo Fisher Scientific, Bremen, Germany) and on a Q Exactive Ultra-High Mass Range Orbitrap mass spectrometer (Thermo Fisher Scientific, Bremen, Germany), both equipped with a nanoflow ESI source. […]
# (§6) Association constants (Ka,kL and Ka,xL) for interactions of AlgKPp and AlgXPp with oligosaccharide ligands were obtained using the direct ESI-MS assay[68],[69]. […] Ka,kL and Ka,xL values were determined from the abundance ratio (R) of the ligand-bound (PL) to free protein (P) ions (P can be AlgKPp or AlgXPp), after correction for nonspecific ligand binding, and the initial concentrations of protein ([P]0) and ligand ([L]0), Eq. (1):1 R/R+1=KaP0+KaL0+1−(1−KaL0+KaP0)^2+4KaL0/2KaP0 where R is taken to be equal to the corresponding equilibrium concentration ratio ([PL]/[P]) in solution, Eq. (2):2 R=∑Ab(PL)/∑Ab(P)=[PL]/[P] and Ka is Ka,kL or Ka,xL.
# [5] = target: T3, AlgXPp (Pseudomonas putida, UniProt Q88ND0); experiment: Direct ESI-MS alginate binding assay, AlgXPp; parameters: His6 (C); made in house; host or cells: E. coli Lemo21 (DE3); conditions: 200 mM aqueous ammonium acetate, pH 7, 25 °C, errors one standard deviation
# Procedure: as §5, §6
# Target sequence in this assay (Q88ND0 25-479): as the sequence (Q88ND0 25-479) above
# [6] = target: T3, AlgXPp; experiment: Direct nanoESI-MS binding assay of the single proteins with reference protein correction for nonspecific binding, 200 mM aqueous ammonium acetate pH 7, 25 °C by the table title (21 °C in the methods).; parameters: gene algX; conditions: read-out: Ka (M^-1) (AlgKPp); Ka (M^-1) (AlgXPp)
# Procedure: as §1, §4
# Target sequence in this assay (Q88ND0 whole entry): as the sequence (Q88ND0 whole entry) above
# [7] = target: T3, AlgXPp; experiment: Acetylesterase activity assay, pNP-acetate, AlgXPp; format: biochemical; parameters: His6 (C); made in house; host or cells: E. coli Lemo21 (DE3); conditions: pNP-acetate pseudosubstrate; sample as labelled (AlgX alone, Man10 alone, AlgX+Man10); single technical replicates
# Procedure: (§7) The assay was performed as previously described in refs. [19], [29] with minor modifications. Briefly, standard reactions contained 5 μM protein (AlgKPp, AlgXPp, or AlgKPp-AlgXPp complex) in 50 mM sodium HEPES pH 7.0 and 75 mM NaCl. Reactions were initiated with the addition of pNP-acetate dissolved in ethanol to 2.5 mM. Alginate substrates were added at a final concentration of 0.5 mg/mL. Alginate substrates were purified as previously described[62] from FRD1[66] and FRD462[67]. The hydrolysis and removal of an acetate group from pNP-acetate was monitored in real-time for 10 min at 405 nm for the appearance of p-nitrophenyl. The background hydrolysis rate of pNP-acetate in the absence of enzymes was measured and subtracted from reaction rates. For Supplementary Fig. 11b, a similar assay was performed as previously described in ref. [19], with minor modifications. Briefly, Briefly, standard reactions contained 5 μM protein (AlgKPp, AlgXPp, or AlgKPp-AlgXPp complex) in 50 mM sodium HEPES pH 7.0 and 75 mM NaCl. […] The hydrolysis and removal of an acetate group from 3-carboxyumbelliferyl acetate was monitored in real-time for 10 min using an excitation of 386 nm and an emission of 447 nm. The background hydrolysis rate of 3-carboxyumbelliferyl acetate in the absence of enzymes was measured and subtracted from reaction rates. Data were analysed using GraphPad Prism 9 (Dotmatics).
# Target sequence in this assay (Q88ND0 25-479): as the sequence (Q88ND0 25-479) above
# [8] = target: T3, AlgXPp; experiment: Acetylesterase activity assay, 3-carboxyumbelliferyl acetate, AlgX; format: biochemical; parameters: His6 (C); made in house; host or cells: E. coli Lemo21 (DE3); conditions: AlgX alone; linear regression of raw values minus buffer blank vs time (s); exp1 and exp2, triplicates; Supp. Fig. 14b
# Procedure: as §7
# Target sequence in this assay (Q88ND0 25-479): as above
# [9] = initial ligand concentration 50 µM
# [10] = initial ligand concentration 100 µM
# [11] = initial ligand concentration 155 µM
# [12] = initial ligand concentration 211 µM
# [13] = initial ligand concentration 265 µM
# [14] = initial ligand concentration 322 µM
compound,measurement,setting,value
CCCO[C@@H]1O[C@H](C(=O)O)[C@@H](O[C@@H]2O[C@H](C(=O)O)[C@@H](O[C@@H]3O[C@H](C(=O)O)[C@@H](O[C@@H]4O[C@H](C(=O)O)[C@@H](O[C@@H]5O[C@H](C(=O)O)[C@@H](O[C@@H]6O[C@H](C(=O)O)[C@@H](O)[C@H](O)[C@@H]6O)[C@H](O)[C@@H]5O)[C@H](O)[C@@H]4O)[C@H](O)[C@@H]3O)[C@H](O)[C@@H]2O)[C@H](O)[C@@H]1O [ManA6],"Ka (M^−1) (AlgKXPp), apparent association constant",[1],(7.8 ± 0.8) × 10^2 M^−1
same,fraction of AlgKXPp bound to ligand,[1]; [9],0.04
same,fraction of AlgKXPp bound to ligand,[1]; [10],0.08
same,fraction of AlgKXPp bound to ligand,[1]; [11],0.11
same,fraction of AlgKXPp bound to ligand,[1]; [12],0.11
same,fraction of AlgKXPp bound to ligand,[1]; [13],0.16
same,fraction of AlgKXPp bound to ligand,[1]; [14],0.22
same,Kd,[2],1.28 mM
same,Kd,[3],3.23 mM
same,"Ka (M^−1) (AlgKPp), apparent association constant",[4],(3.1 ± 0.5) × 10^2 M^−1
same,"Ka (M^−1) (AlgXPp), apparent association constant",[5],(1.9 ± 0.7) × 10^2 M^−1
same,Kd,[6],5.26 mM
CCCO[C@@H]1O[C@H](C(=O)O)[C@@H](O[C@@H]2O[C@H](C(=O)O)[C@@H](O[C@@H]3O[C@H](C(=O)O)[C@@H](O[C@@H]4O[C@H](C(=O)O)[C@@H](O[C@@H]5O[C@H](C(=O)O)[C@@H](O[C@@H]6O[C@H](C(=O)O)[C@@H](O[C@@H]7O[C@H](C(=O)O)[C@@H](O)[C@H](O)[C@@H]7O)[C@H](O)[C@@H]6O)[C@H](O)[C@@H]5O)[C@H](O)[C@@H]4O)[C@H](O)[C@@H]3O)[C@H](O)[C@@H]2O)[C@H](O)[C@@H]1O [ManA7],"Ka (M^−1) (AlgKXPp), apparent association constant",[1],(10 ± 1.0) × 10^2 M^−1
same,fraction of AlgKXPp bound to ligand,[1]; [9],0.028
same,fraction of AlgKXPp bound to ligand,[1]; [10],0.08
same,fraction of AlgKXPp bound to ligand,[1]; [11],0.15
same,fraction of AlgKXPp bound to ligand,[1]; [12],0.20
same,fraction of AlgKXPp bound to ligand,[1]; [13],0.21
same,fraction of AlgKXPp bound to ligand,[1]; [14],0.24
same,"Ka (M^−1) (AlgKPp), apparent association constant",[4],(4.2 ± 0.4) × 10^2 M^−1
same,"Ka (M^−1) (AlgXPp), apparent association constant",[5],(2.6 ± 0.3) × 10^2 M^−1
"AlgX: P. putida KT2440 AlgX 1–479, His-tagged terminal alginate acetyltransferase","slope values: rate of acetylesterase activity, absorbance value at 405 nm per second",[7],5.128e-5 and 6.734e-5 and 4.103e-5
same,slope values used in graph,[8],20818 and 20884 and 19338 and 14321 and 14083 and 15487
